Measured values reported in US9533985B2, “Sulfonamide derivative and medicinal use thereof” (EA Pharma Co., Ltd., priority 2012, dated 2017).

Columns and labels:
Assay type in all cases: cell-based
α4β1 integrin = α4β1 integrin (Homo sapiens (Human), UniProt P05556+P13612); assay: VCAM-1/α4β1 integrin binding inhibitory activity evaluation test (Jurkat cell adhesion to VCAM-1/Fc); conditions: Jurkat cells binding to recombinant human VCAM-1/Fc
How it was run: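 Jurkat cells (5×10^5/well) added with compounds to plates coated with recombinant human VCAM-1/Fc (1 μg/mL coating), in DMEM binding buffer with 40 mM HEPES, 0.2% BSA and 4 mM MnCl2, 15-60 min at 30° C. Bound cells lysed and quantified by LDH absorbance at 490 nm; IC50 relative to compound-free wells, in duplicate.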

α4β7 integrin [1] = target: T1, α4β7 integrin (Homo sapiens (Human), UniProt P13612+P26010); assay: MAdCAM-1/α4β7 integrin binding inhibitory activity evaluation test in the presence of serum (1); conditions: RPMI-8866 cells binding to mouse MAdCAM-1/Fc, human serum at final concentration of 50%; read-out: α4β7 with serum added, IC50
How it was run: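 Plates were coated with recombinant mouse MAdCAM-1/Fc (1 μg/mL, pH 9.6). Human RPMI-8866 B cells (α4β7-expressing) bound for 15–60 min at 30 °C in DMEM/HEPES/BSA with 4 mM MnCl2 and 50% human serum, with test substance present. Bound cells were quantified by LDH absorbance at 490 nm, run in duplicate, and IC50 was calculated relative to no-compound wells.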

α4β7 integrin [2] = target: T1, α4β7 integrin; assay: MAdCAM-1/α4β7 integrin binding inhibitory activity evaluation test (RPMI-8866 cell adhesion to MAdCAM-1/Fc); conditions: for Selectivity: IC50 in VCAM-1/α4β1 test divided by IC50 in MAdCAM-1/α4β7 test; for IC50: RPMI-8866 cells binding to recombinant mouse MAdCAM-1/Fc, no serum
How it was run: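 Human RPMI-8866 cells (α4β7+) adhered for 15–60 min at 30 °C to plates coated with recombinant mouse MAdCAM-1/Fc, in DMEM binding buffer with 4 mM MnCl2 and test compound. Bound cells were quantified via LDH activity (A490) after lysis. IC50 is the 50% inhibition of binding relative to compound-free wells.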

T1 sequence (P13612 34-1032): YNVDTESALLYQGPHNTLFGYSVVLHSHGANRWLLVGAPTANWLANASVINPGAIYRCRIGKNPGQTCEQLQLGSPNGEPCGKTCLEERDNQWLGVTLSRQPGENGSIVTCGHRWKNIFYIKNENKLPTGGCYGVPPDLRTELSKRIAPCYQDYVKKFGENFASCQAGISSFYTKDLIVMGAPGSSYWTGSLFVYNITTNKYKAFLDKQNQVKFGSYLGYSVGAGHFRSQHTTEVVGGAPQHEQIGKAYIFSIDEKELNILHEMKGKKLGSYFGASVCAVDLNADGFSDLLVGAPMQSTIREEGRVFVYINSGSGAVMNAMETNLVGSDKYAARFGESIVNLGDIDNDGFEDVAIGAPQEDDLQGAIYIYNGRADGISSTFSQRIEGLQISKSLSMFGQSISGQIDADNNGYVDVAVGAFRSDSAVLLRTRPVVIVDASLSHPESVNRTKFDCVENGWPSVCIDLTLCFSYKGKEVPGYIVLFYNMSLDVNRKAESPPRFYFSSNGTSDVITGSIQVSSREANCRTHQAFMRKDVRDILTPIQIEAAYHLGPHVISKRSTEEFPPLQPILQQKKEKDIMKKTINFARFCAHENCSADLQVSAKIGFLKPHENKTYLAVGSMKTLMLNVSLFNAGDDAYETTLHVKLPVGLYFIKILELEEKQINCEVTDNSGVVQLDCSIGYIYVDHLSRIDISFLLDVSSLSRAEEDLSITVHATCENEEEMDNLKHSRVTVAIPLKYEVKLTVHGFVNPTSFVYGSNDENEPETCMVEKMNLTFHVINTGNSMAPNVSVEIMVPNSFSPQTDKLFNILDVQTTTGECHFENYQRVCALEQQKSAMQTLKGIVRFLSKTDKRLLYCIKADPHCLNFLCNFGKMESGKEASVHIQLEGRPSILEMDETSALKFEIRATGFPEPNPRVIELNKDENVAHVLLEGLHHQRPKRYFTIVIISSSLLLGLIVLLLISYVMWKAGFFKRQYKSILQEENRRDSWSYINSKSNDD
T1 sequence (P26010 20-798): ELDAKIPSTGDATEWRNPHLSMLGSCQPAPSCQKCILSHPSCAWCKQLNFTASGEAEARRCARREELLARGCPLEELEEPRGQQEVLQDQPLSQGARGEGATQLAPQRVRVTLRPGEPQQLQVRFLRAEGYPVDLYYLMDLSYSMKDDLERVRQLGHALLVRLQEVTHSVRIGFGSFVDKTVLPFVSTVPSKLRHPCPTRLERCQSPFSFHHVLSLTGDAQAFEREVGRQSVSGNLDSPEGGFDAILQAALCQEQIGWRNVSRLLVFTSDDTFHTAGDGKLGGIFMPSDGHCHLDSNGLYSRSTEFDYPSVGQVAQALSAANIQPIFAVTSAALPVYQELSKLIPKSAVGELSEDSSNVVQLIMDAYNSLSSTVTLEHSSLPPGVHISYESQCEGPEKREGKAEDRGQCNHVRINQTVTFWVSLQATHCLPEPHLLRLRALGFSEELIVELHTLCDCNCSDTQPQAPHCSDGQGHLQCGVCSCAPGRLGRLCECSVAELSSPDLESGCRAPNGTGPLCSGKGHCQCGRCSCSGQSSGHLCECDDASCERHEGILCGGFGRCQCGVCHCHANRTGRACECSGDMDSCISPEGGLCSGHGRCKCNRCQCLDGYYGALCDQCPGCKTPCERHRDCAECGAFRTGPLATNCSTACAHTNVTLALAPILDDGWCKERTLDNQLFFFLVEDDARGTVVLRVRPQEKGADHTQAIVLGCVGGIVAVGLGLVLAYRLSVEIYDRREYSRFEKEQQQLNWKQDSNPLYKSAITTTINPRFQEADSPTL
Chain of α4β1 integrin (P13612 34-1032): as the sequence (P13612 34-1032) above
Chain of α4β1 integrin (P05556 21-798): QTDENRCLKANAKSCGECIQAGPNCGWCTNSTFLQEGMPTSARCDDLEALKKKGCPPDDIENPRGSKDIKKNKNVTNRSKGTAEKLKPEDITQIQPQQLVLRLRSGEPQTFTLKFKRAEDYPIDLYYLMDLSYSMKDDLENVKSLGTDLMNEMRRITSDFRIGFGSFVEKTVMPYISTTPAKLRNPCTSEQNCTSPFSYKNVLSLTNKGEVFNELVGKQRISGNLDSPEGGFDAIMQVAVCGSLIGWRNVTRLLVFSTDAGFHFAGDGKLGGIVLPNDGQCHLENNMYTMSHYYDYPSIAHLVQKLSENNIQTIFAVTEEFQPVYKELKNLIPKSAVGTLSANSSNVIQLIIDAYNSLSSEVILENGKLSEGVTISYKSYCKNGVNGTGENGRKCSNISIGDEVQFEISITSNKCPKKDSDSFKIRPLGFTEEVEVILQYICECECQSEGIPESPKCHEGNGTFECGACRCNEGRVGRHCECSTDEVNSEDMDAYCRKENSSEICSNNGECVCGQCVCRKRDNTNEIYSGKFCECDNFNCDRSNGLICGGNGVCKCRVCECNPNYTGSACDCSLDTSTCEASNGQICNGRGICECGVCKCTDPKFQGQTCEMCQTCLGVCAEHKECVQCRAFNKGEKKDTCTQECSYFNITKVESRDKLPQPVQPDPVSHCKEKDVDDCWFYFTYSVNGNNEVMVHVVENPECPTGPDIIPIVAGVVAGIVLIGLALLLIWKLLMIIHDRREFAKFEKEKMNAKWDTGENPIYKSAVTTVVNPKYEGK

Cn1cnc2c1c(=O)n(-c1ccc(C[C@H](NC(=O)c3c(F)cc(NS(=O)(=O)c4ccc(-c5ncccn5)cc4)cc3F)C(=O)O)cc1)c(=O)n2C [Example 77, N-(2,6-Difluoro-4-{[(4-pyrimidin-2-yl-phenyl)sulfonyl]amino}benzoyl)-4-(3,7-dimethyl-2,6-dioxo-2,3,6,7-tetrahydro-1H-purin-1-yl)-L-phenylalanine]
IC50 (α4β1 integrin): 150 nM | IC50 (α4β7 integrin [1]): 9.1 nM | Selectivity (α4β7 integrin [2]): 560 | IC50 (α4β7 integrin [2]): 0.27 nM

Cn1ccc(=O)n(-c2ccc(C[C@H](NC(=O)c3c(F)cc(NS(=O)(=O)c4ccc(-n5nccn5)cn4)cc3F)C(=O)O)cc2)c1=O [Example 72, N-[2,6-Difluoro-4-({[5-(2H-1,2,3-triazol-2-yl)pyridin-2-yl]sulfonyl}amino)benzoyl]-4-(3-methyl-2,6-dioxo-3,6-dihydropyrimidin-1(2H)-yl)-L-phenylalanine]
IC50 (α4β1 integrin): 400 nM | IC50 (α4β7 integrin [1]): 23 nM | Selectivity (α4β7 integrin [2]): 250 | IC50 (α4β7 integrin [2]): 1.6 nM
